Data published in US5965372A, “Genetic sequences encoding glucocorticoid dehydrogenases and uses thereof” (Baker Medical Research Institute, priority 1996, dated 1999).

Legend:
11βHSD2 [1] = molecular target: T1, 11βHSD2 (Homo sapiens, UniProt P80365); assay: Cofactor specificity of glucocorticoid metabolism in homogenates of pHSD2 transfected CHOP cells; format: biochemical; conditions: 1 mM NAD+ or 1 mM NADP+, 37° C. for 40 minutes, TLC
T1 construct: homogenates or intact cells
T1 sequence (P80365 1-405 V148L): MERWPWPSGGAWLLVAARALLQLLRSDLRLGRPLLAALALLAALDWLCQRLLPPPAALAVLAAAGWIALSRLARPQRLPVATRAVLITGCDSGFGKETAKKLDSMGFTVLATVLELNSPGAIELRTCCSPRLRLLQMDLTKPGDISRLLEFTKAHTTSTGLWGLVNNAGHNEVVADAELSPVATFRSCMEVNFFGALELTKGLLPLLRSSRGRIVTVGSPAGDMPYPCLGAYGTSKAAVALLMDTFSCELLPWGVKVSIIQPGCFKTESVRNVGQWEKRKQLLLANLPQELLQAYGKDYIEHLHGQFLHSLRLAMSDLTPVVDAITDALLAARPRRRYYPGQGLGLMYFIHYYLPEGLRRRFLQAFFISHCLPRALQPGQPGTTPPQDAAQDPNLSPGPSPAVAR
Protocol: CHOP cells were transfected with plasmid pHSD2, which contains an insert encoding 11βHSD2. After 60 hours incubation in 85 mm plates, cellular homogenates were prepared and assayed for their ability to metabolise glucocorticoid substrates in the presence of 1 mM NAD+, or 1 mM NADP+. Confluent cells were homogenised in 1 ml of homogenisation buffer (0.25 M sucrose, 10 MM phosphate, pH 7). Reaction mixtures (500 μl) contained either 40 μl of homogenate plus [^3 H]corticosterone, or 80 μl of homogenate plus [^3 H]cortisol, or 120 μl of homogenate plus [^3 H]dexamethasone, in homogenisation buffer. All reactions contained 1-2 nM tritiated glucocorticoid substrate plus 10 nM unlabelled glucocorticoid substrate. Reaction mixtures were incubated at 37° C. for 40 minutes and steroid metabolites were assayed by thin layer chromatography.

11βHSD2 [2] = molecular target: T1, 11βHSD2; assay: Directionality and end product inhibition in intact pHSD2 transfected CHOP cells; format: cell-based; conditions: monolayer cultures, 1.5 hours at 37° C., 1-2 nM labelled substrate, TLC
Protocol: To determine directionality and extent of end production inhibition of the enzyme encoded by pHSD2, monolayer cultures of transfected CHOP cells were incubated for 1.5 hours at 37° C. with 1-2 nM labelled substrates plus 10 nM corresponding unlabelled 11-dehydro metabolite (FIG. 2b). The culture medium was then removed, extracted and assayed by TLC for the presence of the 11-dehydro metabolite.
Dehydrogenase activity was also estimated in the presence of an excess of the respective 11-dehydro metabolite (FIG. 2b, III).

11βHSD2 [3] = molecular target: T1, 11βHSD2; assay: Km determination in homogenates of pHSD2 transfected CHOP cells; format: biochemical; conditions: double reciprocal plot, 37° C., mean±SD, n=3
Text: The efficiency of the dehydrogenase may be further increased by mechanisms such as intracellular compartmentalisation of the enzyme.

Row | Km (11βHSD2 [3]) | SMILES | glucocorticoid metabolism to 11-dehydro metabolite, cofactor dependence (11βHSD2 [1]) | metabolite formation by intact transfected CHOP cells (11βHSD2 [2])
1 | – | C[C@@H]1C[C@H]2[C@@H]3CCC4=CC(=O)C=C[C@]4(C)[C@@]3(F)[C@@H](O)C[C@]2(C)[C@@]1(O)C(=O)CO [dexamethasone] | only showed significant glucocorticoid metabolism when NAD+, but not NADP+, was included as a cofactor | –
2 | – | C[C@]12CCC(=O)C=C1CC[C@@H]1[C@@H]2[C@@H](O)C[C@@]2(C)[C@H]1CC[C@]2(O)C(=O)CO [cortisol] | only showed significant glucocorticoid metabolism when NAD+, but not NADP+, was included as a cofactor | converted
3 | – | C[C@]12CC(=O)[C@H]3[C@@H](CCC4=CC(=O)CC[C@@]43C)[C@@H]1CC[C@@H]2C(=O)CO [11-dehydro corticosterone] | – | no metabolite formed
4 | – | C[C@]12CCC(=O)C=C1CC[C@@H]1[C@@H]2C(=O)C[C@@]2(C)[C@H]1CC[C@]2(O)C(=O)CO [cortisone] | – | no metabolite formed
5 | 5.1 ± 1.2 nM | C[C@]12C[C@H](O)[C@H]3[C@@H](CCC4=CC(=O)CC[C@@]43C)[C@@H]1CC[C@@H]2C(=O)CO [corticosterone] | only showed significant glucocorticoid metabolism when NAD+, but not NADP+, was included as a cofactor | converted
